Data taken from publication PMC1090567, “S-Nitrosothiols modulate G protein-coupled receptor signaling in a reversible and highly receptor-specific manner” (BMC Cell Biology, 2005).

Biological target: T1, Adenosine A1 (Rattus norvegicus, UniProt P25099)
T1 construct: gene Adora1; native receptor in rat forebrain P2 membranes
T1 sequence (P25099 1-326): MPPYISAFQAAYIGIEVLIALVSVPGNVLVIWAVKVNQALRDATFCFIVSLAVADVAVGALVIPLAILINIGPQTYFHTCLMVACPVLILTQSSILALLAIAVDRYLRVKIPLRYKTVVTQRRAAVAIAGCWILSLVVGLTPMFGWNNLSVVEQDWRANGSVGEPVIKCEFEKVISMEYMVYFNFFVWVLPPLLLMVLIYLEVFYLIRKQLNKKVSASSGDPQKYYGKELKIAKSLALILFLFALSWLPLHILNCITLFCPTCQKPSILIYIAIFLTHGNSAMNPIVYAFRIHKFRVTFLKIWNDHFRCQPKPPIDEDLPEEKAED
Assay: […]GTPγS binding, rat forebrain membranes
Type: biochemical
Conditions: agonist; control without GSNO; 10 μM GDP, pH 7.4, 25 °C

- Control / log(EC50): -6.90 ± 0.04
SMILES: Nc1nc(Cl)nc2c1ncn2[C@@H]1O[C@H](CO)[C@@H](O)[C@H]1O [2-chloroadenosine]
